Patent US20020183684A1, “Electroporation-enhanced inhibition of vascular neointimal hyperplasia” (GENETRONICS, priority 1996, published 2002)
“Also recorded” adds a separate entry of the source.

Legend:
[1] = system: balloon injured rat carotid arteries (neointimal hyperplasia); test: Balloon injury of rat carotid arteries, local heparin delivery with or without electroporation, arterial morphometry at day 28; format: in vivo; details: for Active lumen area / Intimal wall thickness / Mean intimal area / Medial area / Intima/media thickness ratio: day 28, mean ± SEM; for Neointima formation (in words): 28 days
Protocol: Mature adult male Sprague-Dawley rats (Harlan, San Diego, Calif.) with an average body weight of 423.8±8.6 (SEM) gm were housed in individual cages in light-dark cycled, temperature-controlled rooms. Standard laboratory chow and water were available ad lib. After a minimum of 7 days acclimatization, the rats were anesthetized with an intramuscular injection of ketamine, 90 mg/kg (Phoenix, St. Joseph, Mo.) and xylazine, 15 mg/kg (Fermenta, Kansas City, Mo.). After anesthesia, they were strapped supine on a surgical table with body temperature maintained at 37° C. using a thermostatic blanket. The animals breathed spontaneously and Lead II electrocardiogram was monitored throughout the experiment. […] All procedures conformed to the guiding principles of the American Physiological Society and Institutional Animal Care and Use Committee (Department of Health and Human Services, National Institutes of Health).
Neointimal hyperplasia in rats was induced by a technique described earlier by Clowes et al. (A. W. Clowes and M. M. Clowes, supra). Briefly, the left and right common carotid arteries (CCA) were isolated through cervical incision. After isolation of the arteries, the left CCA at the thoracic entry point was temporarily clamped with a bulldog clip. The right CCA served as a control artery and was not surgically manipulated. The left CCA was catheterized through a proximal incision at the junction of the internal and external carotid arteries with a 2F Fogarty embolectomy catheter (Baxter Healthcare Corporation, Irvine, Calif.). The catheter was advanced to the distal CCA, inflated with 0.3 ml of ambient air for 30 sec each time, and retracted to the internal carotid-external carotid junction three times, with one rotation after each passage to ensure uniform injury of the arterial wall. The Fogarty catheter was then withdrawn and exchanged for a porous balloon electroporation (PBE) catheter.
The PBE catheter (manufactured by Danforth Biomedical, Santa Clara, Calif. as per design provided by Genetronics, Inc., San Diego, Calif.) is comprised of a 2F, triple-lumen shaft with a porous 1.5 cm long PET balloon at the distal end. Catheter lumens are used for passage of a 0.014″ guide wire for balloon inflation and deflation and as a conduit for the lead to the central electrode inside the balloon. The balloon has an inflated diameter of 1.4 mm, with four rows of 7 holes each (nominal hole size: 15-25 μm). The balloon serves as a reservoir for the heparin-containing composition. The central electrode inside the balloon is a coiled silver wire wrapped tightly and densely around the catheter shaft, over a length of approximately 10 mm. This balloon electrode acts as the cathode and the inserted guidewire as the anode. The distance between the distal end of the balloon electrode and the proximal end of the bare zone of the conductive guidewire was 4 mm (FIG. 9).
Following balloon catheter injury of the left CCA, rats were divided into three groups. Groupl received local intracarotid delivery of heparin (Elkins-Sinn, Cherry Hill, N.J.), but no electrical pulsing (positive untreated test: H+E−; H stands for heparin and E for electrical pulsing; + or − designate […] of H or E, respectively). Group 2 received a sequence of four electroporative pulses in the presence of heparin (positive treated test: H+E+). The uninjured right CCA of all animals comprised Group 3 which received neither drug nor electrical pulses and served as negative untreated control (H−E−).
Immediately following balloon injury of the vessel, a PBE catheter was introduced into the injured portion of the left CCA after placement of a temporary clip at the distal end of the balloon injured segment. Heparin (200 IU in 0.1 ml) (Elkins-Sinn) was delivered through the balloon pores into the arterial wall over a period of approx. 20 seconds. […]

porcine artery = details: cited from earlier work
porcine carotid artery = details: pig, in vivo; cited from earlier work
[2] = Group 2 H+E+ Inj+, with electroporation

## heparin
[1]; Group 1 H+E− Inj+, no pulsing
  Active lumen area: 0.295 sq. mm
  Intimal wall thickness: 541 μm
  Mean intimal area: 0.778 sq. mm
  Medial area: 0.254 sq. mm
[1]; Group 1 H+E− Inj+: heparin 200 IU local, no electrical pulsing
  Intima/media thickness ratio: 2.96
[1]; [2]
  Active lumen area: 0.902 sq. mm
  Intimal wall thickness: 26.10 μm
  Mean intimal area: 0.067 sq. mm
  Medial area: 0.338 sq. mm
[1]; Group 2 H+E+ Inj+: heparin 200 IU local plus 4 pulses 100 V 20 ms
  Intima/media thickness ratio: 0.25
[1]; H+E+ group
  Slope of linear regression, active lumen area versus IEL area: 0.57
[1]; H+E+: heparinized, electroporated balloon injured arteries, versus H+E−
  Neointima formation (in words): significant reduction in the volume of neointima; also recorded: vastly reduced neointimal thickness; also recorded: strong reduction in the formation of neointimal volume
[1]; H+E− group
  Slope of linear regression, active lumen area versus IEL area: 0.17
[1]; H+E−: heparinized, non-electroporated balloon injured arteries
  Neointima formation (in words): marked proliferation of neointima; also recorded: pronounced neointima formation
[1]; all groups
  Pre-sacrificial electrocardiogram (Lead II): did not reveal any rhythm abnormality
[1]; electroporation-enhanced delivery of heparin
  Period of inhibition of neointimal growth and favorable remodeling: at least 28 days
[1]; rats, behavior and weight
  Tolerability of surgery and arterial electroporation: tolerated the surgery and arterial electroporation well
Porcine artery; approximately 1 hour after iontophoretic delivery
  Fraction of drug washed out: 96%
Porcine artery; heparin 1000 U to 20,000 U/ml
  Concentration remaining in the vessel, IO versus passive delivery: greater concentrations remaining in the vessel
Porcine artery; heparin 1000 U/ml, coronary angiography, blood pressure, cardiac rhythm
  Safety of iontophoretic delivery: safe and well tolerated
Porcine artery; pig balloon injury model, following IO delivery
  Platelet deposition: reduced

## hirudin
Porcine carotid artery
  Fraction of drug washed out: 80%
  Level in the artery: the same as for passive delivery
